Assay results as given in patent publication US20100183658A1, “Novel Compounds for Enhancing MHC Class II Therapies” (The Brigham and Women's Hospital, Inc., priority 2007, published 2010).
“Also recorded” adds a separate entry of the source. Each block holds one molecule with its values, some of them ahead of it. Ends that are not written are not given here. C(Compound (Ia)-maleimide) = not defined here

What was measured:
[1] = molecular target: T1, DR2 (Homo sapiens, UniProt P01903+P01911); assay: Dissociation of pre-bound Alexa-488 labeled MBP peptide from DR2 followed by fluorescence polarization; format: biochemical; design: we generated DR/CLIP complexes as soluble molecules in CHO cells; CLIP peptide (of invariant chain, CD74) joined through a linker with a thrombin cleavage site (N, cleaved yes); made in house; conditions: for displacement (dissociation) of labeled MBP peptide from DR2 by competitor: competitor 50 μM, 150 nM DR2/50 nM Alexa-488 MBP
Description: We also examined whether Compound (Ia) could induce the release of a previously bound high affinity peptide from DR2 as shown in FIG. 4B. This issue is important for potential applications of this small molecule because most DR molecules are occupied by intermediate to high affinity peptides. Applicants therefore loaded the DR2 molecule with the high affinity Alexa™-488 MBP peptide during an overnight incubation and then examined if Compound (Ia) could induce dissociation of this labeled peptide. A molar excess of an unlabeled MBP peptide was added to inhibit rebinding of the labeled peptide to DR2. […] Compound (Ia) thus substantially accelerates peptide binding by creating empty DR molecules.
We then tested the concept of “self-catalyzed peptide loading” by synthesizing the MBP peptide with an N-terminal or C-terminal cysteine to which the Compound (Ia)-maleimide was linked. These peptide-Compound (Ia) compounds were purified by reverse-phase HPLC and their identity verified by mass spectrometry. Applicants then examined whether the linked Compound (Ia) group could displace a high affinity peptide from the DR2 binding site. For that purpose, we loaded DR2 (1.5 μM) with the Alexa™-488 labeled MBP peptide (500 nM) at 37° C. for 5 hours. The complex was then diluted to 150 nM DR2/50 nM Alexa™-488 and added to a 384-well plate in a volume of 40 μl.

[2] = test system: MGAR cells; assay: Cellular assay: MBP peptide loading on MGAR cells, FACS labeling with MK16 mAb; format: cell-based, human; conditions: for activity relative to Compound (Ia) in loading of MBP peptide to DR2: MGAR cells, MBP peptide 1 μM, FIG. 13B, 14B
Description: The cells were then labeled with biotinylated MK16 Fab and streptavidin-APC and analyzed by FACS. Cells not pulsed with peptide (green line) were used as a negative control to define background labeling of MK16.
(§1) MGAR cells were incubated with MBP peptide (1 μM) in the presence of different compounds and the amount of DR2 bound peptide was determined by FACS labeling with the MK16 mAb.
as §1, §1

[3] = molecular target: T1, DR2; assay: Real-time fluorescence polarization peptide binding assay (DR2/CLIP plus Alexa-488 labeled MBP peptide)
[4] = DR2/TCR transgenic mice and other EAE models, from a mean score of ~4; cited from earlier work
[5] = 20 mg daily subcutaneously over two years; cited from earlier work
[6] = test system: DR2/MBP specific T cell hybridoma; assay: T cell assay: IL-2 release by DR2/MBP specific T cell hybridoma, MBP (85-99) presented by MGAR cells; format: cell-based; conditions: MGAR cells as APC
Description: Peptide presentation of MBP (85-99) to T cell hybridomas by MGAR cells was measured by IL-2 release.

[7] = molecular target: T2, DR2/CLIP (Homo sapiens, UniProt P01903+P01911); assay: Competition for binding of labeled MBP peptide to DR2/CLIP in the FP assay; conditions: 10 nM MBP-488, 100 nM DR2/CLIP, wide dose range
T2 construct: we generated DR/CLIP complexes as soluble molecules in CHO cells; CLIP peptide (of invariant chain, CD74) joined through a linker with a thrombin cleavage site (N, cleaved yes); made in house
Description: Competitor peptides were tested over a wide dose range against 10 nM MBP-488 and 100 nM DR2/CLIP in the FP assay.
Compound (Ia)-glatiramer acetate compounds are characterized for their ability to compete for binding of the Alexe™-488 labeled MBP peptide to DR2 in the FP assay, as well as for their ability to inhibit presentation of the MBP peptide to human MBP specific T cell clones, as described in detail above.

[8] = test system: CD4 T cell response; assay: Immunization of HLA-DR4 transgenic mice with viral and tumor peptides, CD4 T cell response; format: in vivo; conditions: co-administered with or covalently linked to peptide
Excerpt: HLA-DR4 transgenic mice (DRA, DRB1*0401) are used to examine whether Compound (Ib), Compound (Ia) and the other compounds enhance the CD4 T cell response following immunization with viral and tumor peptides. Mice are immunized with peptides from two human pathogens (HIV and HCV) as well as peptides from two human tumor antigens (annexin V and gp100, identified in human melanomas). Applicants have previously performed binding studies with these peptides and shown that they bind with high affinity to DR4. The T cell response is analyzed in two different assays. First, the frequency of peptide-specific T cells is analyzed in draining lymph nodes with DR4/peptide tetramers. This approach provides a quantitative readout of the induced T cell response. Second, the cytokine production profile of these T cells is determined following a 48 hour in vitro re-stimulation with the relevant peptide. The cytometric bead array technique is utilized for comprehensive definition of the cytokine repertoire. Either Compound (Ia) is co-administered with the peptide of interest in the adjuvant or peptides are utilized with a covalently linked Compound (Ia) group (or other groups, depending on which one is being tested). […] These experiments are expected to establish the in vivo efficacy of Compound (Ia) and to establish appropriate dosing and administration procedures with rapid, quantitative readouts. […]

[9] = test system: dendritic cells; assay: Peptide presentation by dendritic cells in vivo (MK16 labeling of draining lymph node cells); conditions: co-administered at 50-200 μM s.c. with MBP peptide
Excerpt: Applicants next established the higher levels of peptide presentation in the presence of Compound (Ia) in human antigen presenting cells (APCs). The goal of these experiments is to examine whether Compound (Ia) covalently linked to the MBP peptide (abbreviated as Compound (Ia)*MBP peptide) and Compound (Ia) co-administered with peptide (Compound (Ia)+MBP peptide) enhance binding to MHC-II in vivo compared to unmodified peptide. The MK16 mAb (Krogsgaard et al., 2000, J. Exp. Med., 191:1395-1412) is used to directly quantify DR2/MBP peptide complexes on the surface of dendritic cells in lymph nodes draining the s.c. injection site. Lymph nodes are dissected 24 hours following injection of peptides in PBS and cell suspensions are labeled with CD11c (dendritic cells), MK16 (DR2/MBP), and Annexin-V (exclusion of apoptotic cells) for FACS analysis. The efficacy of Compound (Ia)*MBP peptide and unmodified MBP peptide are compared at concentrations ranging from 1 to 100 μM administered s.c. in the flank in 0.2 ml of PBS. In the co-administration mode, Compound (Ia) is added to the inoculum at concentrations of 50-200 μM.

[10] = mouse, in vivo
Excerpt: An important aspect of the medicinal chemistry effort is a thorough analysis of potential in vivo toxicity.

[11] = molecular target: T3, empty DR2 molecules (Homo sapiens, UniProt P01903+P01911); assay: Association of Alexa-488 MBP peptide to empty DR2 molecules after photo-cleavage of bound peptide (FP); format: biochemical; conditions: photo-cleaved bound peptide, with versus without compound
T3 construct: we generated DR/CLIP complexes as soluble molecules in CHO cells; CLIP peptide (of invariant chain, CD74) joined through a linker with a thrombin cleavage site (N, cleaved yes); made in house
Excerpt: DM acts as a catalyst that accelerates peptide binding reactions and increases both the rate of peptide dissociation and association. […] Rigorous testing of this hypothesis required generation of empty DR molecules, a task that is challenging because DR molecules aggregate over time in the absence of peptide. Applicants therefore synthesized a peptide with a photo-cleavable residue (a derivative of phenylalanine), so that the binding site could be rapidly vacated by peptide cleavage. This approach has been reported for the creation of empty MHC class I molecules (Toebes et al., 2006, Nat. Med., 12:246-251). The photoreactive group [3-amino-3-(2-nitro) phenyl-propionic acid; […]] was placed at the P4 position of the peptide, close to the center of DR2 bound peptide. The peptide also carried an N-terminal DNP group for affinity isolation of the complex generated with this peptide. […] Applicants then loaded this peptide onto DR2 molecules, isolated the complex by DNP affinity chromatography, irradiated the samples at 360 nm at 4° C., added Alexa™-488 labeled MBP and tracked its association to DR2 by FP in the presence and absence of Compound (Ia). Applicants observed a striking Compound (Ia)-induced acceleration of Alexa™-488 MBP association to DR2 when the bound peptide was photo-cleaved compared to reactions with photo-cleavage but no Compound (Ia) as diagrammed in FIG. 5. […]

displacement (dissociation) of labeled MBP peptide from DR2 by competitor [1]: slow dissociation
Molecule: MBP peptide without linked Compound (Ia): unmodified myelin basic protein (85-99) peptide that binds with high affinity to DR2 (PGSRPHLIRLFSRDA; UniProt P02686 85-99, looked up, fragment) [reference compound]

Molecule: O=C(Cc1c(C(=O)O)[nH]c2c(F)c(F)c(F)cc12)Nc1ccc(F)c(Cl)c1 [Compound (Id)]
activity relative to Compound (Ia) in loading of MBP peptide to DR2 [2]: higher activities than Compound (Ia)

fold higher activity than Compound (Ia) in catalyzing loading of the MBP peptide to DR2 ([3]; biochemical assay): 4.2 fold
Molecule: O=C(Cc1c(C(=O)O)[nH]c2c(F)c(F)c(F)cc12)Nc1ccc(Cl)c(Cl)c1 [Compound (Ib)]
activity relative to Compound (Ia) in loading of MBP peptide to DR2 [2]: substantially higher activity than Compound (Ia)

Molecule: glatiramer acetate
mean EAE score under treatment [4]: ~2
reduction of relapse rate [5]: 29%

Molecule: MBP-C-Compound (Ia): MBP peptide with a C-terminal cysteine to which the Compound (Ia)-maleimide was linked (PGSRPHLIRLFSRDA-{C(Compound (Ia)-maleimide)}; reading uncertain; UniProt P02686 85-99, looked up, fragment)
displacement (dissociation) of labeled MBP peptide from DR2 by competitor ([1]; listed as MBP peptide with C-terminally linked Compound (Ia)): more effective in displacing the labeled peptide; also recorded: more favorable
IL-2 production by T cell hybridoma [6]: higher levels of IL-2 production
competition against labeled MBP peptide for DR2/CLIP [7]: more effective competitor than unmodified MBP peptide

Molecule: O=C(Cc1c(C(=O)O)[nH]c2ccccc12)Nc1ccc(Cl)c(Cl)c1 [Compound (Ic)]
activity relative to Compound (Ia) in loading of MBP peptide to DR2 [2]: higher activities than Compound (Ia)

Molecule: O=C(Cc1c(C(=O)O)[nH]c2ccc(Cl)cc12)Nc1ccc(F)c(Cl)c1 [Compound (Ia)]
CD4 T cell response following immunization [8]: substantial enhancement
fold increase of the initial rate of peptide association ([3]; neutral pH): 22 fold
time to reach half-maximal peptide association ([3]; pH 5.2, absence of DM, compound at 109 μM (160 minutes without compound)): 7 min
rate of peptide binding reaction compared to DM ([3]; pH 5.2, higher compound concentrations): faster than in the presence of DM
pH of maximum activity ([3]; pH range 3.75-7.0): 5.25
fold increase of the initial rate of peptide association ([3]; pH range from pH 4.5 to 5.75): more than 58 fold
loading of peptides on dendritic cells in vivo [9]: increases loading of peptides in a dose-dependent manner
acute toxicity, observation of mice [10]: no sips of distress
peptide association to empty DR2 molecules [11]: substantially accelerated peptide association to empty DR2 molecules
dissociation of previously bound high affinity labeled MBP peptide from DR2 ([1]; excess unlabeled MBP peptide, versus DMSO control): marked acceleration of peptide dissociation
concentration range inducing peptide dissociation ([1]; release of high affinity peptides from DR2): low micro-molar range
lowering of the dose of peptide required for equivalent staining / presentation ([2]; 1 μM MBP peptide plus compound versus 10 μM peptide alone): approximately 10 fold
presentation of MBP on MGAR cells (MK16 staining) ([2]; 100 μM compound, 1.7 μM MBP peptide, 30 minutes at 37° C.): significantly increased
